The values below are quoted from earlier work in EP2525785B1, “SUSTAINED RELEASE TABLET FORMULATION CONTAINING ETODOLAC” (Turgut Laclari A.S., priority 2010, dated 2011).

Molecules are shown by their SMILES.

The conditions of the series: below pH 3.

As to `CCc1cccc2c3c([nH]c12)C(CC)(CC(=O)O)OCC3` (stereo not shown) [Etodolac, 2-(1,8-diethyl-4,9-dihydro-3H-pyrano[3,4-b]indole-1-il)acetic acid], the solubility result is “low solubility”.
